Test results reported in patent publication US20060069132A1, “Azolecarboxamide herbicides” (priority 2004, published 2006).

Assays:
[1] = test system: cocklebur; assay: Test B pre-/postemergence herbicide test; type: in vivo, Xanthium strumarium; settings: for Cocklebur plant response rating (0 to 100 scale) / Plant response rating, Cocklebur: preemergence; for Cocklebur plant response rating: postemergence, scale 0 (no effect) to 100 (complete control)
How it was run: (§1)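 Visual rating, 0 (no effect) to 100 (complete control), versus untreated controls after 13–15 d in greenhouse. Pre- and postemergence applications (postemergence plants 2–18 cm, 1–4 leaves); flooded paddy arm at 2-leaf stage. Compounds in non-phytotoxic solvent plus surfactant.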

[2] = test system: rice; assay: Test B pre-/postemergence herbicide test; type: in vivo, Oryza sativa; settings: preemergence; for Rice plant response rating (0 to 100 scale): 125 g ai/ha; for Plant response rating, Rice: 500 g ai/ha
How it was run: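 Species tested were Echinochloa crus-galli, Ipomoea coccinea, Xanthium strumarium and Oryza sativa, treated both before emergence and at the 1- to 4-leaf stage; rice and barnyardgrass were also tested under flooding at 2 leaves. Greenhouse incubation lasted 13–15 days before visual 0–100 scoring.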

[3] = test system: pigweed; assay: Test B pre-/postemergence herbicide test; type: in vivo, Amaranthus retroflexus; settings: for Pigweed plant response rating (0 to 100 scale) / Plant response rating, Pigweed: preemergence; for Pigweed plant response rating: postemergence, scale 0 (no effect) to 100 (complete control)
How it was run: (§2)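 Greenhouse pot assay with simultaneous preemergence (treated seed) and postemergence (2–18 cm seedlings) applications of surfactant-containing, non-phytotoxic solvent formulations. Response scored visually 13–15 days later on a 0–100 scale, 100 meaning complete control.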

[4] = test system: giant foxtail; assay: Test B pre-/postemergence herbicide test; type: in vivo, Setaria faberi; settings: for Foxtail, Giant plant response rating: postemergence, scale 0 (no effect) to 100 (complete control)
How it was run: as §2

[5] = test system: blackgrass; assay: Test B postemergence herbicide test; type: in vivo, Alopecurus myosuroides; settings: postemergence, visual rating, scale 0 (no effect) to 100 (complete control)
How it was run: (§3)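 Visual ratings, 0 (no effect) to 100 (complete control), made versus controls after 13–15 d greenhouse. Paddy plants treated at 2-leaf stage; postemergence plants at 1- to 4-leaf stage, 2–18 cm tall.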

[6] = test system: rice; assay: Test B flooded paddy test; type: in vivo, Oryza sativa; settings: 1000 g ai/ha, visual rating, scale 0 to 100 (0 no effect, 100 complete control), 13 to 15 days
How it was run: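 Greenhouse test; postemergence application to plants at 1–4 leaves (2–18 cm); paddy species at 2 leaves; evaluated visually vs controls at 13–15 days; scale 0–100 (100 = complete control).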

[7] = test system: Surinam grass; assay: Test B pre-/postemergence herbicide test; type: in vivo, Urochloa decumbens; settings: for Surinam Grass plant response rating: postemergence, scale 0 (no effect) to 100 (complete control)
How it was run: as §2

[8] = test system: barnyardgrass; assay: Test B pre-/postemergence herbicide test; type: in vivo, Echinochloa crus-galli; settings: for Barnyardgrass plant response rating (0 to 100 scale) / Plant response rating, Barnyardgrass: preemergence; for Barnyardgrass plant response rating: postemergence, scale 0 (no effect) to 100 (complete control)
How it was run: as §1

[9] = test system: wheat; assay: Test B postemergence herbicide test; type: in vivo, Triticum aestivum; parameters: key to Wheat plant response rating: 0 = no effect, 100 = complete control; settings: postemergence, visual rating, scale 0 (no effect) to 100 (complete control)
How it was run: (§4)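 Formulated test chemicals went onto postemergence plants measuring 2 to 18 cm, at one to four leaves. For the paddy assay, species had reached two leaves. Scoring took place 13–15 days later by eye, relative to untreated plants, using 0 for no effect up to 100 for full control.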

[10] = test system: morningglory; assay: Test B pre-/postemergence herbicide test; type: in vivo, Ipomoea coccinea; settings: for Morningglory plant response rating: postemergence, scale 0 (no effect) to 100 (complete control)
How it was run: as §1

[11] = test system: barnyardgrass; assay: Test B flooded paddy test; type: in vivo, Echinochloa crus-galli; settings: 1000 g ai/ha, visual rating, scale 0 to 100 (0 no effect, 100 complete control), 13 to 15 days
How it was run: as §3

[12] = test system: wild oat; assay: Test B postemergence herbicide test; type: in vivo, Avena fatua; settings: postemergence, visual rating, scale 0 (no effect) to 100 (complete control)
How it was run: as §4

[13] = test system: large crabgrass; assay: Test B pre-/postemergence herbicide test; type: in vivo, Digitaria sanguinalis; settings: for Crabgrass, Large plant response rating (0 to 100 scale) / Plant response rating, Crabgrass, Large: preemergence; for Crabgrass, Large plant response rating: postemergence, scale 0 (no effect) to 100 (complete control)
How it was run: as §2

[14] = test system: small flower umbrella sedge; assay: Test B flooded paddy test; type: in vivo, Cyperus difformis; settings: 1000 g ai/ha, visual rating, scale 0 to 100 (0 no effect, 100 complete control), 13 to 15 days
How it was run: as §3

[15] = test system: ducksalad; assay: Test B flooded paddy test; type: in vivo, Heteranthera limosa; settings: 1000 g ai/ha, visual rating, scale 0 to 100 (0 no effect, 100 complete control), 13 to 15 days
How it was run: as §3

[16] = test system: lambsquarters; assay: Test B pre-/postemergence herbicide test; type: in vivo, Chenopodium album; settings: for Lambsquarters plant response rating (0 to 100 scale) / Plant response rating, Lambsquarters: preemergence; for Lambsquarters plant response rating: postemergence, scale 0 (no effect) to 100 (complete control)
How it was run: as §2

[17] = test system: velvetleaf; assay: Test B pre-/postemergence herbicide test; type: in vivo, Abutilon theophrasti; settings: for Velvetleaf plant response rating (0 to 100 scale) / Plant response rating, Velvetleaf: preemergence; for Velvetleaf plant response rating: postemergence, scale 0 (no effect) to 100 (complete control)
How it was run: as §2

[18] = test system: corn; assay: Test B pre-/postemergence herbicide test; type: in vivo, Zea mays; settings: for Corn plant response rating (0 to 100 scale) / Plant response rating, Corn: preemergence; for Corn plant response rating: postemergence, scale 0 (no effect) to 100 (complete control)
How it was run: as §2

[19] = 125 g ai/ha, 0 = no effect, 100 = complete control
[20] = 500 g ai/ha, visual rating 0-100, 0 no effect, 100 complete control
[21] = 0 = no effect, 100 = complete control
[22] = 500 g ai/ha, visual rating 0-100, 0 no effect, 100 complete control, preemergence
[23] = 125 g ai/ha, 0 = no effect, 100 = complete control, preemergence
[24] = 500 g ai/ha, visual rating, 0 = no effect, 100 = complete control
[25] = 500 g ai/ha, visual rating, 0 = no effect, 100 = complete control, preemergence

## CC(=NO)c1cccc(NC(=O)c2nn(C(C)(C)C)cc2C(F)(F)F)c1 [Compound 171]
[1]; [19]
  Cocklebur plant response rating (0 to 100 scale): 0
[1]; [20]
  Plant response rating, Cocklebur: 0
[1]; 125 g ai/ha, visual rating
  Cocklebur plant response rating: 0
[1]; 500 g ai/ha, visual rating
  Cocklebur plant response rating: 0
[2]; [21]
  Rice plant response rating (0 to 100 scale): 0
[2]; visual rating 0-100, 0 no effect, 100 complete control
  Plant response rating, Rice: 0
[3]; [19]
  Pigweed plant response rating (0 to 100 scale): 0
[3]; [20]
  Plant response rating, Pigweed: 0
[3]; 125 g ai/ha, visual rating
  Pigweed plant response rating: 10
[3]; 500 g ai/ha, visual rating
  Pigweed plant response rating: 20
[4]; [22]
  Plant response rating, Foxtail, Giant: 0
[4]; 125 g ai/ha, visual rating
  Foxtail, Giant plant response rating: 10
[4]; 500 g ai/ha, visual rating
  Foxtail, Giant plant response rating: 20
[5]; 125 g ai/ha
  Blackgrass plant response rating: 0
[5]; 500 g ai/ha
  Blackgrass plant response rating: 0
[6]
  Rice plant response rating: 0
[7]; [22]
  Plant response rating, Surinam Grass: 0
[7]; 125 g ai/ha, visual rating
  Surinam Grass plant response rating: 10
[7]; 500 g ai/ha, visual rating
  Surinam Grass plant response rating: 10
[8]; [19]
  Barnyardgrass plant response rating (0 to 100 scale): 0
[8]; [20]
  Plant response rating, Barnyardgrass: 0
[8]; 125 g ai/ha, visual rating
  Barnyardgrass plant response rating: 0
[8]; 500 g ai/ha, visual rating
  Barnyardgrass plant response rating: 10
[9]; 125 g ai/ha
  Wheat plant response rating: 0
[9]; 500 g ai/ha
  Wheat plant response rating: 0
[10]; [23]
  Morningglory plant response rating (0 to 100 scale): 0
[10]; 125 g ai/ha, visual rating
  Morningglory plant response rating: 0
[10]; 500 g ai/ha, visual rating
  Morningglory plant response rating: 0
[11]
  Barnyardgrass plant response rating: 0
[12]; 125 g ai/ha
  Oat, Wild plant response rating: 0
[12]; 500 g ai/ha
  Oat, Wild plant response rating: 0
[13]; [19]
  Crabgrass, Large plant response rating (0 to 100 scale): 0
[13]; [20]
  Plant response rating, Crabgrass, Large: 30
[13]; 125 g ai/ha, visual rating
  Crabgrass, Large plant response rating: 0
[13]; 500 g ai/ha, visual rating
  Crabgrass, Large plant response rating: 10
[14]
  Sedge, Umbrella plant response rating: 0
[15]
  Ducksalad plant response rating: 0
[16]; [19]
  Lambsquarters plant response rating (0 to 100 scale): 0
[16]; [20]
  Plant response rating, Lambsquarters: 0
[16]; 125 g ai/ha, visual rating
  Lambsquarters plant response rating: 10
[16]; 500 g ai/ha, visual rating
  Lambsquarters plant response rating: 20
[17]; [19]
  Velvetleaf plant response rating (0 to 100 scale): 0
[17]; [20]
  Plant response rating, Velvetleaf: 20
[17]; 125 g ai/ha, visual rating
  Velvetleaf plant response rating: 0
[17]; 500 g ai/ha, visual rating
  Velvetleaf plant response rating: 0
[18]; [19]
  Corn plant response rating (0 to 100 scale): 0
[18]; [20]
  Plant response rating, Corn: 0
[18]; 125 g ai/ha, visual rating
  Corn plant response rating: 0
[18]; 500 g ai/ha, visual rating
  Corn plant response rating: 10

## CCN(CC)C(=O)c1cccc(NC(=O)c2nn(C(C)(C)C)cc2Cl)c1 [Compound 218]
[1]; [19]
  Cocklebur plant response rating (0 to 100 scale): 0
[1]; [24]
  Plant response rating, Cocklebur: 0
[1]; 125 g ai/ha, visual rating
  Cocklebur plant response rating: 0
[1]; 500 g ai/ha, visual rating
  Cocklebur plant response rating: 0
[2]; [21]
  Rice plant response rating (0 to 100 scale): 0
[2]; visual rating, 0 = no effect, 100 = complete control
  Plant response rating, Rice: 0
[3]; [19]
  Pigweed plant response rating (0 to 100 scale): 0
[3]; [24]
  Plant response rating, Pigweed: 0
[3]; 125 g ai/ha, visual rating
  Pigweed plant response rating: 0
[3]; 500 g ai/ha, visual rating
  Pigweed plant response rating: 20
[4]; [23]
  Foxtail, Giant plant response rating (0 to 100 scale): 0
[4]; [25]
  Plant response rating, Foxtail, Giant: 0
[4]; 125 g ai/ha, visual rating
  Foxtail, Giant plant response rating: 0
[4]; 500 g ai/ha, visual rating
  Foxtail, Giant plant response rating: 0
[5]; 125 g ai/ha
  Blackgrass plant response rating: 0
[5]; 500 g ai/ha
  Blackgrass plant response rating: 0
[6]
  Rice plant response rating: 0
[7]; [23]
  Surinam Grass plant response rating (0 to 100 scale): 0
[7]; [25]
  Plant response rating, Surinam Grass: 0
[7]; 125 g ai/ha, visual rating
  Surinam Grass plant response rating: 0
[7]; 500 g ai/ha, visual rating
  Surinam Grass plant response rating: 10
[8]; [19]
  Barnyardgrass plant response rating (0 to 100 scale): 0
[8]; [24]
  Plant response rating, Barnyardgrass: 0
[8]; 125 g ai/ha, visual rating
  Barnyardgrass plant response rating: 0
[8]; 500 g ai/ha, visual rating
  Barnyardgrass plant response rating: 0
[9]; 125 g ai/ha
  Wheat plant response rating: 0
[9]; 500 g ai/ha
  Wheat plant response rating: 0
[10]; [23]
  Morningglory plant response rating (0 to 100 scale): 0
[10]; [25]
  Plant response rating, Morningglory: 0
[10]; 125 g ai/ha, visual rating
  Morningglory plant response rating: 0
[10]; 500 g ai/ha, visual rating
  Morningglory plant response rating: 10
[11]
  Barnyardgrass plant response rating: 0
[12]; 125 g ai/ha
  Oat, Wild plant response rating: 0
[12]; 500 g ai/ha
  Oat, Wild plant response rating: 0
[13]; [19]
  Crabgrass, Large plant response rating (0 to 100 scale): 0
[13]; [24]
  Plant response rating, Crabgrass, Large: 20
[13]; 125 g ai/ha, visual rating
  Crabgrass, Large plant response rating: 0
[13]; 500 g ai/ha, visual rating
  Crabgrass, Large plant response rating: 10
[14]
  Sedge, Umbrella plant response rating: 20
[15]
  Ducksalad plant response rating: 0
[16]; [19]
  Lambsquarters plant response rating (0 to 100 scale): 0
[16]; [24]
  Plant response rating, Lambsquarters: 0
[16]; 125 g ai/ha, visual rating
  Lambsquarters plant response rating: 0
[16]; 500 g ai/ha, visual rating
  Lambsquarters plant response rating: 10
[17]; [19]
  Velvetleaf plant response rating (0 to 100 scale): 0
[17]; [24]
  Plant response rating, Velvetleaf: 0
[17]; 125 g ai/ha, visual rating
  Velvetleaf plant response rating: 0
[17]; 500 g ai/ha, visual rating
  Velvetleaf plant response rating: 0
[18]; [19]
  Corn plant response rating (0 to 100 scale): 0
[18]; [24]
  Plant response rating, Corn: 0
[18]; 125 g ai/ha, visual rating
  Corn plant response rating: 0
[18]; 500 g ai/ha, visual rating
  Corn plant response rating: 10
